Data on two compounds can be found in paper PMC12305494, “Discovery of PXR Antagonist MI891 and PXR Degrader MI1013 and Their Roles in Hepatic Gene Regulation” (Journal of Medicinal Chemistry, 2025).

In one data set the test system is HK-2 cells. Briefly: CellTiter-Glo cytotoxicity assay, HK-2. It is filed as cell-based, human. The note with it: 24 h. The method, then:
(§1) For the cytotoxicity assays involving HepG2, COS-1, and HK-2 cell lines, serial dilutions of MI891 or MI1013 were added to white 96-well tissue culture-treated plates containing these cell lines. After incubating the plates for 24 h at 37 °C, cytotoxicity was assessed using the CellTiter-Glo luminescent cell viability assay (Promega). The luminescence signal was measured with a Synergy2 plate reader (BioTek, Winooski, Vermont, USA) and presented as a relative change compared to the vehicle (DMSO, 0.1%) control, which was set at 100%.

Another data set has as its target T1, PXR-eGFP (Homo sapiens, UniProt O75469).
T1 construct: expressed in transfected cells; host or cells: COS-1 (lysate used)
Briefly: Microscale thermophoresis (MST). It is filed as binding. The note with it: COS-1 cell lysate expressing PXR-eGFP. Here is the method:
Microscale Thermophoresis (MST) experiments were conducted using the Monolith NT.115 (201810-BR-N006) (Blue/Red) instrument from NanoTemper Technologies GmbH, Germany. Cell lysates from COS-1 cells expressing PXR-eGFP served as the source of fluorescently labeled PXR, allowing the study of proteins in near-native conditions. COS-1 cells were transfected with 1000 ng of GFP-fused PXR (PXR-eGFP) using Lipofectamine 3000 and lysed 48 h post-transfection with RIPA buffer. To assess MI891 binding to PXR, cell lysates were diluted 2x with MST buffer (10 mM Na-phosphate buffer, pH 7.4, 1 mM MgCl2, 3 mM KCl, 150 mM NaCl, 0.05% Tween-20) to achieve optimal fluorescence levels. A titration series of MI891 (0–30 μM) was incubated with the diluted cell lysates. Measurements were taken in premium-coated capillaries (NanoTemper Technologies GmbH, MO-K025) using an LED source (Blue LED: Ex: 470(±10)/Em: 520(±10) nm) with an excitation wavelength of 470 nm and a 50% maximum stimulation time (MST). The excitation power was […]. Binding affinity was evaluated using the Hill model, with each data point representing mean fraction bound values from three independent experiments. The bound fraction of PXR-eGFP was determined, and fitting was performed using the Hill model method in MO Affinity Analysis v2.3 software (NanoTemper Technologies). […]

The test system of another data set is HepG2 cells. Put plainly: CellTiter-Glo cytotoxicity assay, HepG2. It is filed as cell-based, human. The note with it: 24 h. The method, then:
as §1
(In general: ATP-based viability assays read luminescence as a measure of living cells.)

Data set [1] has as its target T2, triple mutant (S208W/S247W/C284W) PXR LBD (Homo sapiens, UniProt O75469, C284W/S208W/S247W).
T2 construct: the GAL4-PXR-LBD triple mutants (S247W/C284W/S208W) construct; expressed in transfected cells; host or cells: HepG2
T2 sequence (O75469 146-433 S208W/S247W/C284W limits assumed): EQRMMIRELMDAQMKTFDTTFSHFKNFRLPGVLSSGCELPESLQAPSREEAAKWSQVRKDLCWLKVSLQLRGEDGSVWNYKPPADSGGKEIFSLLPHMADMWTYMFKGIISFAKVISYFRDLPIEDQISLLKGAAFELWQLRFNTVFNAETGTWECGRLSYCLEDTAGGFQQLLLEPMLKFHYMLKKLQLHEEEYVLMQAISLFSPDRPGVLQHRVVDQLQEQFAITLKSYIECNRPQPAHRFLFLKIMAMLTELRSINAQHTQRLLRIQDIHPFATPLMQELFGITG
Put plainly: Mammalian two-hybrid assay, obstructed triple mutant PXR LBD with SRC-1-VP16 in HepG2. It is filed as cell-based. The text has this:
(§2) Additionally, the GAL4-PXR-LBD triple mutants (S247W/C284W/S208W) construct and wild-type GAL4-wtPXR vector were used for PXR LBD mutant functional two-hybrid assay as we described before. In the mammalian two-hybrid assay, HepG2 cells were cotransfected with a GAL4-hPXR LBD construct and pSCR1-VP16 construct. Renilla luciferase vector was used for the normalization of firefly luciferase activity to Renilla luciferase activity.

The next data set addresses T3, wild-type PXR LBD (Homo sapiens, UniProt O75469).
T3 construct: HepG2 cells were cotransfected with a GAL4-hPXR LBD construct and pSCR1-VP16 construct; expressed in transfected cells; host or cells: HepG2
T3 sequence (O75469 146-433 limits assumed): T2 sequence (O75469 146-433 S208W/S247W/C284W limits assumed) with W63S, W102S, W139C
Briefly: Mammalian two-hybrid assay, wt-PXR LBD with SRC-1-VP16 in HepG2. It is filed as cell-based. The note with it: MI891 at 10 μM.
Text: as §2

The test system of a further data set is COS-1 cells. Briefly: CellTiter-Glo cytotoxicity assay, COS-1. It is filed as cell-based, monkey. The note with it: 24 h. The method, then:
as §1

A further data set concerns HepaRG cells. Put plainly: RT-qPCR gene expression in differentiated HepaRG cells. It is filed as cell-based, human. The note with it: 48 h. The method, then: HepaRG cells (Sigma-Aldrich/Merck) were cultivated and differentiated on 12-well plates. Seeded at 26,600 cells/cm^2, they were maintained in William’s medium with supplements. After 14 days, differentiation into hepatocyte-like cells was induced using 1.5% DMSO for another 14 days.
RT-qPCR was utilized to investigate gene expression in HepaRG and PHH. Total RNA was extracted from these cells using the phenol–chloroform method. The concentration of the isolated RNA was then measured using a Nanodrop 1000 spectro-photometer (Thermo Fisher Scientific).
Following RNA isolation, reverse transcription was performed to convert RNA into complementary DNA (cDNA). This step was carried out using the High-capacity cDNA reverse transcription kit (Cat. No. 4374966, ThermoFisher Scientific). The resulting cDNA served as the template for subsequent qPCR reactions.
The qPCR reactions were conducted on the QuantStudio 6 Flex Real-Time PCR System (ThermoFisher Scientific, Waltham, Mas-sachusetts). For these reactions, TaqMan Universal master mix II (Cat. No. 4440047, ThermoFisher Scientific) and TaqMan assays (FAM) utilized in this study are detailed in the Supporting Information. To quantify gene expression, the cycle threshold (Ct) values of the target genes were normalized to the Ct values of reference genes HPRT1 or GAPDH (HepaRG) or TBP (PHH). The normalized values were then expressed as fold changes (2−ΔΔCt) relative to the DMSO control at the specified time points, with the control set as 1.
A general note: In qPCR the cycle at which signal appears reflects the starting amount.

Residue numbers refer to the chain shown, from its start.

T1 sequence (O75469 whole entry): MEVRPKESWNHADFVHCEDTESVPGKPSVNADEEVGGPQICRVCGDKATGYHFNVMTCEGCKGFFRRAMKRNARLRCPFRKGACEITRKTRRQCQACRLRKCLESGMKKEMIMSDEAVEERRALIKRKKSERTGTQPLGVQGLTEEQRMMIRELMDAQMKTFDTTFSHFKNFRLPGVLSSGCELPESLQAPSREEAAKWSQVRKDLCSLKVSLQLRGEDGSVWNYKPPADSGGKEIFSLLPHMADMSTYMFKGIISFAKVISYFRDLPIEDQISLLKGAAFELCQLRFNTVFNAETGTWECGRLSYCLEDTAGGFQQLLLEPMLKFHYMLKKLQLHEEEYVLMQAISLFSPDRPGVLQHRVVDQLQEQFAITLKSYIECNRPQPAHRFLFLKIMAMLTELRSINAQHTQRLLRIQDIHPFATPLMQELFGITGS

Take `NC(=O)c1cc(Cn2cc(-c3c(-c4ccc(Cl)cc4)nc4c(F)cc(F)cn34)nn2)ccc1Cl` [Compound 11, 2-Chloro-5-((4-(2-(4-chlorophenyl)-6,8-difluoroimidazo[1,2-a]pyridin-3-yl)-1H-1,2,3-triazol-1-yl)methyl)-benzamide]: the effect on viability result with HK-2 cells (HK-2, up to 30 μM) is given as “no effects on viability”; in the data set on HepG2 cells (HepG2, up to 30 μM), “no effects on viability”; with COS-1 cells (COS-1, up to 30 μM), “no effects on viability”. For the same compound, the affinity on PXR-eGFP, expressed as Kd, was 1700 nM. For the same compound, the “activation of obstructed mutated PXR LBD two-hybrid” value in data set [1] is “Neither MI891 nor SPA70 activated the obstructed mutated PXR LBD”. Also, the “effect on wt-PXR-LBD/SRC1-VP16 two-hybrid” value at wild-type PXR LBD is on record as “disrupted the wt-PXR-LBD/SRC1-VP16 interaction”. Besides, the “SULT1E1, SULT1B1, CYP7B1 and NR0B2 (SHP) gene expression” value in the data set on HepaRG cells (MI891 5 μM, MI1013 2 μM) is recorded as “significantly downregulated”. Besides, the “CYP2B6 mRNA expression” value with HepaRG cells (at 1 μM, no significant activation at higher concentrations) was “slightly induced”. Besides, in the data set with HepaRG cells (alone or with rifampicin (5 μM), concentration-dependent), the “CYP3A4 mRNA expression” value is “suppressed both rifampicin-induced and basal (constitutive) CYP3A4 mRNA expression”.
For the compound “N-(4-((1-(2,5-dimethoxyphenyl)-5-methyl-1H-1,2,3-triazol-4-yl)sulfonyl)phenyl)-3-(2-(2-(2-(4-(((2-(2,6-dioxopiperidin-3-yl)-1,3-dioxoisoindolin-4-yl)amino)methyl)-1H-1,2,3-triazol-1-yl)ethoxy)ethoxy)ethoxy)propenamide [Compound 36]”, the cytotoxicity/viability entry was “nontoxic” in the data set on HK-2 cells (HK-2, up to a concentration of 100 μM); “nontoxic” in the data set with HepG2 cells (HepG2, up to a concentration of 100 μM); “nontoxic” in the data set with COS-1 cells (COS-1, up to a concentration of 100 μM). Besides, the “activation of obstructed mutated PXR LBD two-hybrid” value in data set [1] was “does not activate”. Also, the “effect on wt-PXR-LBD/SRC1-VP16 two-hybrid” value on wild-type PXR LBD was “does not activate”. The “SULT1E1, SULT1B1, CYP7B1 and NR0B2 (SHP) gene expression” value with HepaRG cells (MI891 5 μM, MI1013 2 μM) is listed as “significantly downregulated”. In the data set with HepaRG cells (MI891 5 μM, SPA70 5 μM, MI1013 2 μM), the CYP3A4 gene expression entry is recorded as “downregulated”.
